Reference: patent US7718618B2, “Human cathelicidin antimicrobial peptides” (priority 2003, dated 2010)
Ends that are not written are not given here.

Columns and labels:
[1] = test system: S. aureus mprF; test: LL-37 incubated in sweat, radial diffusion assay against S. aureus mprF; assay type: cell-based, Staphylococcus aureus; settings: protease inhibitor added during incubation, 37° C., 6 hr
Description: Antibacterial activity evaluated by radial diffusion assay against S. aureus mprF after incubation of LL-37 (32 uM) in sweat. a) Increase in the inhibition zone is seen when incubated in sweat but not 10 mM PBS or distilled water (DW). b) Diameters of inhibition zone after 6 hr incubation at 37° C. in (SWT buffer; sweat buffer salts alone), (PBS), (D.W.; distilled water), (SWT; sterile filtered human sweat at 37° C.), (SWT at 4° C.), (SWT with PI, with protease inhibitor cocktail). c) Action of specific protease inhibitors on gain of antimicrobial activity. […] N.E.I.=neutrophil elastase inhibitor, L.E.I.=leukocyte elastase inhibitor. Data are triplicate determinations±SEM from single experiment representative of 3.
Sweat collection and processing. Sweat was collected on paper tissues (Kimwipes, Kimberly-Clark, GA) from healthy volunteers after exercise. After collection, 20 ml of sweat was centrifuged at 2000 g for 15 min. at 4° C., filtered through a […] (Acrodisc syringe filter, […], low protein binding, Fisher scientific, Tustin, Calif.), and frozen at −80° C. […] Protein concentrations were evaluated by BCA assay (protein assay reagent, Pierce, Rockford, Ill.) or Bradford protein assay (Bio-Rad, Hercules, Calif.) according to manufacture's instructions. […]

[2] = test system: human erythrocytes; test: Hemolysis assay on human whole blood; assay type: cell-based; settings: peptide at 100 μM; relative to 0.1% Triton X-100
Description: Hemolysis Assay. Hemolytic activity was determined on human whole blood. Freshly obtained whole blood was washed 3× in PBS and resuspended in PBS at its original volume containing peptides at indicated concentrations. Samples were incubated at 37° C. for 1.5 to 3 h, and hemolysis determined by centrifuging at 300 g and measurement of the absorbance of the supernatant at 578 nm. Hemolytic activity of each peptide was expressed as the percentage of total hemoglobin released compared to that released by incubating with 0.1% Triton X-100.

[3] = test system: Group B Strep (GBS); test: Group B Strep susceptibility to CRAMP; assay type: cell-based; settings: 16 μM peptide, without NaHCO3
[4] = test system: Staphylococcus aureus; test: S. aureus growth inhibition (turbidity OD600) with or without carbonate; assay type: cell-based
Description: Carbonate was identified as the antimicrobial enhancing factor in mammalian tissue culture media via serial deletion of Minimal Essential Media (MEM) components. Staphylococcus aureus was cultured in 20% Tryptic Soy Broth (TSB), 10% Fetal Bovine Serum (FBS) and 70% of various media or media components with, or without, 32 μM LL-37 to assess which components could increase antimicrobial activity. MEM buffers are 2200 mg/L NaHCO3, 140 mg/L NaH2PO4 and 6800 mg/L NaCl. MEM salts are 200 mg/L CaCl2, 400 mg/L KCl, 98 mg/L MgSO4. All solutions were adjusted to pH 7.4. Bacterial growth was measured as the change in turbidity at OD600 and percent inhibition was determined by comparing bacterial growth in the presence of peptide to that in the absence of peptide.
Inhibition of S. aureus was measured in 20% TSB, 10% FBS 1 mM NaH2PO4, 150 mM NaCl, with either 50 mM NaHCO3 or […] Glycine buffer at various pH.
Inhibition of Staph aureus growth in the presence of various concentrations of human (LL-37), murine (CRAMP) and porcine (PR-39). Cathelicidin antimicrobial peptides was measured in 20% TSB, 1 mM NaH2PO4, with, or without, […] NaHCO3 at pH 7.4.
The growth of S. aureus in the presence, or absence, of 32 μM LL-37 was measured in 20% TSB, 10% FBS, 1 mM NaH2PO4, 150 mM NaCl, and various concentrations of NaHCO3, all at pH 7.4. […] High concentrations of NaHCO3 retarded the growth of S. aureus. […]

[5] = test system: E. coli; test: E. coli susceptibility to CRAMP with or without NaHCO3; assay type: cell-based
[6] = test system: Salmonella; test: Salmonella susceptibility to CRAMP; assay type: cell-based; settings: 16 μM peptide, without NaHCO3
[7] = test system: antigen presentation; test: Antigen presentation in vitro; assay type: cell-based
[8] = test system: wild-type S. aureus (clinical isolate); test: Radial diffusion assay against wild-type S. aureus; assay type: cell-based, Staphylococcus aureus
Description: (§1) As a positive control, synthetic LL-37 was applied to separate wells. After incubation at 37° C. overnight, the inhibition zones were recorded by CCD camera and diameters measured. To evaluate antimicrobial activity against wild-type S. aureus (clinical isolate), and enteroinvasive E. coli 029, both radial diffusion and solution killing assays were done. Radial diffusion assays were done as described for S. aureus mprF. Solution killing was done in 10% TSB in 10 mM PB (TSB=30 gm/L Tryptic Soy Broth, Sigma, St Louis Mo.; 20×PB=27.6 g/L NaH2PO4-H2O, 53.65 g/L Na2HPO4-7H2O, pH 7.4). Bacteria in log-phase growth were suspended to 1×10^6 cells/ml, peptide added and incubated at 37° C. for 2 hr. Bacteria were then plated on TSB agar (TSB, Bactoagar 13 g/L, Becton Dickinson, Sparks Md.) for direct colony count and determination of CFU.

[9] = test system: Staphylococcus aureus mprF; test: Radial diffusion assay against S. aureus mprF; assay type: cell-based
Description: Antimicrobial assays. For screening of antimicrobial activity of HPLC fractions, radial diffusion assay was used. Lyophilized HPLC fractions were dissolved in DW (GibcoBRL, Grand Island, N.Y.), and tested against Staphylococcus aureus mprF. Thin plates (1 mm) of 1% agarose in 0.5% tryptone containing approximately 1×10^6 cells/ml of S. aureus mprF were used. 1 mm wells were punched in the plates and […] of samples dissolved in tissue culture grade sterile water were loaded in each well.
as §1

[10] = test system: enteroinvasive E. coli 029; test: Radial diffusion assay against E. coli O29; assay type: cell-based
Description: as §1

[11] = test system: C. albicans ATCC 14053; assay type: cell-based, Candida albicans
Description: (§2) Activity against Group A Streptococcus (NZ131) was done only in solution assay as described. To evaluate antimicrobial activity in high salt conditions, solution assay was done in 10% TSB/10 mM PBS with several salt concentrations (concentration of NaCl; 10, 50, 100, 150, 300, 500 mM). Action against the C. albicans was determined in Dixon medium (0.6% Peptone, 4% Malt Extract, 1% Glucose, 0.1% Ox Bile, 1% Tween-80) in sterile 96-well microtiter plates (Corning Inc., Corning, N.Y.) at a final volume of […]. The assay mixtures contained 1-2.5×10^4 […] freshly grown Candida, 20% Dixon medium, 0.6 mM phosphate buffer pH 7, and […] chloramphenicol. Microtiter plates were incubated at 37° C. for 24 h with peptides, then plated on Dixon agar to determine the MFC (minimum fungicide concentration).

[12] = test system: Group A Streptococcus (NZ131); assay type: cell-based
Description: as §1, §2

[13] = test system: S. aureus; test: Release of cytoplasmic beta-galactosidase from S. aureus (membrane disruption); assay type: cell-based; settings: with versus without NaHCO3
Source text: Release of cytoplasmic expressed beta-galactosidase was measure from bacteria with and without the addition of NaHCO3.

[14] = 16 μM peptide in presence of NaHCO3
[15] = 16 μM peptide without SOM NaHCO3

## NCCc1ccc(S(=O)(=O)F)cc1 [AEBSF]
[1]
  blocking of the increase in antimicrobial activity of LL-37 in sweat: most effective in blocking the increase in antimicrobial activity

## CC[C@H](C)[C@H](NC(=O)[C@H](CCCCN)NC(=O)[C@H](CCC(=O)O)NC(=O)[C@H](CCCCN)NC(=O)[C@H](CO)NC(=O)[C@H](CCCCN)NC(=O)[C@H](CCCNC(=N)N)NC(=O)[C@H](Cc1ccccc1)NC(=O)[C@H](Cc1ccccc1)NC(=O)[C@H](CC(=O)O)NC(=O)CNC(=O)[C@H](CC(C)C)NC(=O)[C@@H](N)CC(C)C)C(=O)NCC(=O)N[C@@H](CCCCN)C(=O)N[C@@H](CCC(=O)O)C(=O)N[C@@H](Cc1ccccc1)C(=O)N[C@@H](CCCCN)C(=O)N[C@@H](CCCNC(=N)N)C(=O)N[C@H](C(=O)N[C@H](C(=O)N[C@@H](CCC(N)=O)C(=O)N[C@@H](CCCNC(=N)N)C(=O)N[C@H](C(=O)N[C@@H](CCCCN)C(=O)N[C@@H](CC(=O)O)C(=O)N[C@@H](Cc1ccccc1)C(=O)N[C@@H](CC(C)C)C(=O)N[C@@H](CCCNC(=N)N)C(=O)N[C@@H](CC(N)=O)C(=O)N[C@@H](CC(C)C)C(=O)N[C@H](C(=O)N1CCC[C@H]1C(=O)N[C@@H](CCCNC(=N)N)C(=O)N[C@H](C(=O)N[C@@H](CCC(=O)O)C(=O)N[C@@H](CO)C(=O)O)[C@@H](C)O)C(C)C)[C@@H](C)CC)C(C)C)[C@@H](C)CC [LL-37]
[2]
  % hemolysis: 9%

## Aprotinin
[1]
  blocking of the increase in antimicrobial activity of LL-37 in sweat: most effective in blocking the increase in antimicrobial activity

## CRAMP
[3]
  susceptibility of Group B Strep (GBS): susceptible even without NaHCO3
[4]; [14]
  susceptibility of S. aureus: became susceptible
[4]; [15]
  susceptibility of S. aureus: resistant
[5]; [14]
  susceptibility of E. coli: became susceptible
[5]; [15]
  susceptibility of E. coli: resistant
[6]
  susceptibility of Salmonella: susceptible even without NaHCO3
[7]
  antigen presentation in vitro: inhibits antigen presentation in vitro

## H-KSKEKIGKEFKRIVQRIKDFLRNLVPRTES-OH [KS-30]
[8]
  action against wild-type S. aureus compared to LL-37: greatly increased action
  Radial Diffusion Assay S. aureus (wt), minimal inhibitory concentration (MIC): 16 μm
[9]
  Radial Diffusion Assay S. aureus MprF, minimal inhibitory concentration (MIC): 8 μm
[10]
  action against E. coli compared to LL-37: greatly increased action
  Radial Diffusion Assay E. coli (O29), minimal inhibitory concentration (MIC): 8 μm
[11]
  Liquid Assay C. albicans ATCC 14053, minimal concentration required to kill: 2 μm
[12]
  Liquid Assay GAS (NZ131), minimal concentration required to kill: 4 μm

## H-RKSKEKIGKEFKRIVQRIKDFLRNLVPRTES-OH [RK-31]
[8]
  action against wild-type S. aureus compared to LL-37: greatly increased action
  Radial Diffusion Assay S. aureus (wt), minimal inhibitory concentration (MIC): 16 μm
[9]
  Radial Diffusion Assay S. aureus MprF, minimal inhibitory concentration (MIC): 8 μm
[10]
  action against E. coli compared to LL-37: greatly increased action
  Radial Diffusion Assay E. coli (O29), minimal inhibitory concentration (MIC): 8 μm
[11]
  Liquid Assay C. albicans ATCC 14053, minimal concentration required to kill: 4 μm
[12]
  Liquid Assay GAS (NZ131), minimal concentration required to kill: 8 μm

## KRIVQRIKDFLRNLVPRTES [KR-20]
[8]
  Radial Diffusion Assay S. aureus (wt), minimal inhibitory concentration (MIC): >64 μm
[9]
  Radial Diffusion Assay S. aureus MprF, minimal inhibitory concentration (MIC): 16 μm
[10]
  Radial Diffusion Assay E. coli (O29), minimal inhibitory concentration (MIC): >64 μm
[11]
  Liquid Assay C. albicans ATCC 14053, minimal concentration required to kill: 10 μm
[12]
  Liquid Assay GAS (NZ131), minimal concentration required to kill: 4 μm

## Polymyxin B
[13]
  leakage of cytoplasmic protein (beta-galactosidase): induces greater leakage of cytoplasmic protein with carbonate

## SSLLEKGLDGAKKAVGGLGKLGKDAVEDLESVGKGAVHDVKDVLDSV (listed as Homo sapiens) [DCD, dermcidin antimicrobial peptide of human sweat, reference compound]
[8]
  Radial Diffusion Assay S. aureus (wt), minimal inhibitory concentration (MIC): >64 μm
[9]
  Radial Diffusion Assay S. aureus MprF, minimal inhibitory concentration (MIC): >64 μm
[10]
  Radial Diffusion Assay E. coli (O29), minimal inhibitory concentration (MIC): >64 μm
[11]
  Liquid Assay C. albicans ATCC 14053, minimal concentration required to kill: >32 μm
[12]
  Liquid Assay GAS (NZ131), minimal concentration required to kill: >64 μm
